Measured values published in patent publication US4788178A, “Use of gonadoliberin and gonadoliberin agonists for the treatment of climacteric complaints” (Hoechst Aktiengesellschaft, priority 1984, dated 1988).

Legend:
parathyroid hormone [1] = settings: after infusion of calcium; similar small doses; cited from earlier work
parathyroid hormone [2] = experiment: Regulating action of small doses of buserelin on parathyroid hormone in the plasma of rats; format: in vivo; settings: young female rats with a high level of parathyroid hormone
Excerpt: Increased levels of parathyroid hormone are found in bone marrow in cases of osteoporosis (Klin. Wochenschr. 62, 129-132, 1984); parathyroid hormone has an osteolytic effect. In young female rats with a high level of parathyroid hormone, small doses of the gonadoliberin agonist buserelin reduced parathyroid hormone in the plasma, although a parathyroid hormone level which has been reduced by infusion of calcium is raised by similar doses of buserelin (see German Patent Application No. P 33 32 329.1). It is possible that this regulating action of buserelin on parathyroid hormone plays a part in the treatment of ostalgia and osteoporosis.

parathyroid hormone [3] = experiment: Action of buserelin to lower parathyroid hormone in blood serum of rats; format: in vivo, female Wistar rats
Protocol: 4 groups each containing 5 female Wistar rats were treated with placebo or three different doses (1 ng/kg, 5 ng/kg and 50 ng/kg) of buserelin. An initial blood sample was taken from all animals (initial value). Thereafter, the animals were given an injection of buserelin in physiological sodium chloride solution with the addition of 0.25% Haemaccel^R, and the placebo group was given the same amount of physiological sodium chloride solution with the addition of 0.25% Haemaccel^R. Blood samples were taken after 90 minutes and 240 minutes. The blood serum was investigated for parathyroid hormone. […] Explanation of the FIG. 1: The time course of the PTH level after i.v. administration of 1 ng/kg buserelin (curve 1), 5 ng/kg (curve 2) and 50 ng/kg (curve 3) is shown. […] All measurements are indicated with standard deviation (n=5).

SMILES: CCNC(=O)[C@@H]1CCCN1C(=O)[C@H](CCCNC(=N)N)NC(=O)[C@H](CC(C)C)NC(=O)[C@@H](COC(C)(C)C)NC(=O)[C@H](Cc1ccc(O)cc1)NC(=O)[C@H](CO)NC(=O)[C@H](Cc1c[nH]c2ccccc12)NC(=O)[C@H](Cc1cnc[nH]1)NC(=O)[C@@H]1CCC(=O)N1 [buserelin, [D-Ser(Bu^t)^6]-gonadoliberin-(1-9)-nonapeptide ethylamide]
- parathyroid hormone level previously reduced by infusion of calcium (parathyroid hormone [1]): raised
- parathyroid hormone in the plasma (parathyroid hormone [2]): reduced
- dose dependence of the parathyroid hormone lowering effect (parathyroid hormone [3]; 1, 5 and 50 ng/kg i.v., 90 minutes): best effect being observed at the low doses
- level of parathyroid hormone in blood serum after 90 minutes (parathyroid hormone [3]; i.v. 1 ng/kg, 5 ng/kg and 50 ng/kg buserelin, female Wistar rats, 90 minutes, n=5): decreased
- level of parathyroid hormone in blood serum after 240 minutes (parathyroid hormone [3]; i.v. 1, 5 and 50 ng/kg, 240 minutes): initial value had been regained
